Assay results published in ChEMBL document CHEMBL1201862, “PubChem BioAssay data set” (2004).
Where “and” joins values, the source holds several entries; their conditions need not be identical. Equal entries are not always repeated. One block for each compound: values may come before it. Calls of active or inactive are those of the source.

What was measured:
[1] = SAR analysis of small molecule activators of Apaf-1 using a LZ-Caspase-9/Caspase-3 Fluorescent Selectivity assay - Set 2.; assay type: functional; settings: read-out: EC50_Mean
[2] = biological target: T1, Apoptotic protease-activating factor 1 (Homo sapiens, UniProt O14727); assay: SAR analysis of small molecule Activators of Apaf-1 in a Fluorescent assay.; assay type: functional; settings: read-out: EC50_Mean
T1 sequence (O14727 whole entry): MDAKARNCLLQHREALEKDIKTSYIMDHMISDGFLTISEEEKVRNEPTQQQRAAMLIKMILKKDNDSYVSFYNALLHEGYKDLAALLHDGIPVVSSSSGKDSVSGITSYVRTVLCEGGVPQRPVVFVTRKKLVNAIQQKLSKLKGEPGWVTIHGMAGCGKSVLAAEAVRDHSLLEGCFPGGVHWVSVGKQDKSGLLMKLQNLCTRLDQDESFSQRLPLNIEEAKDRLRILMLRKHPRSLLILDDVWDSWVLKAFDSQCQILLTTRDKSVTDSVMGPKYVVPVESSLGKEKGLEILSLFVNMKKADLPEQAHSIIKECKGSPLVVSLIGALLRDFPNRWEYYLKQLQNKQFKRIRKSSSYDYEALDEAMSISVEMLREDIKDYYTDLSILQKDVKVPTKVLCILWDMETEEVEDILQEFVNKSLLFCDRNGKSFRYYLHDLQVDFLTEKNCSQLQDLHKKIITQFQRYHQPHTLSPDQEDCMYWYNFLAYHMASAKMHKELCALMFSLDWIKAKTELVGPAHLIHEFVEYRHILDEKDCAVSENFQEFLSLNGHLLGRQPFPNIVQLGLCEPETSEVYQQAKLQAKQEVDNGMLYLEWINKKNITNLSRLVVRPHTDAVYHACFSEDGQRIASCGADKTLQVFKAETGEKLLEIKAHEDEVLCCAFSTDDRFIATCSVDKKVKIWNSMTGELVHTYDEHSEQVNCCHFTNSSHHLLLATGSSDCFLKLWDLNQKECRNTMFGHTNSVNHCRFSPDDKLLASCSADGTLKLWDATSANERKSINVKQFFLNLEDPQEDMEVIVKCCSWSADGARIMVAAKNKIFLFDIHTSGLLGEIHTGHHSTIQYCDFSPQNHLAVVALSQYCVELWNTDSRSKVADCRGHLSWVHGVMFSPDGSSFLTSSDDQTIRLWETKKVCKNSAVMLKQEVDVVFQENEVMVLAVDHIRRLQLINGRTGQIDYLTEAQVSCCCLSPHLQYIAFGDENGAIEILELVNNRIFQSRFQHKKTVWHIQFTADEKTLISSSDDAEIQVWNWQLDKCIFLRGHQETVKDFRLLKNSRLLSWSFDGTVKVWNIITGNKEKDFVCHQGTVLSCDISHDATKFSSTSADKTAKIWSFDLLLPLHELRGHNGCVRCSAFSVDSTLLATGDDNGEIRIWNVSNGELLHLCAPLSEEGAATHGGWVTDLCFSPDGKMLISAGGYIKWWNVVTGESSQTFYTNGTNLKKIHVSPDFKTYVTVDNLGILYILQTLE

[3] = biological target: T1, Apoptotic protease-activating factor 1; assay: SAR analysis of small molecule Activators of Apaf-1 in a Fluorescent assay - set 2.; assay type: functional; settings: read-out: EC50_Mean
[4] = biological target: DNA dC->dU-editing enzyme APOBEC-3G (Homo sapiens, UniProt Q9HC16); assay: Dose Response confirmation of small molecule APOBEC3G DNA Deaminase Inhibitors via a fluorescence-based single-stranded DNA deaminase assay. [Related pubchem assays (depositor defined):AID493012, AID493028]; assay type: functional
Melanocortin receptor 4 = Melanocortin receptor 4 (Homo sapiens, UniProt P32245); assay: inhibitors of MC4R cAMP signaling – cell-based, TR-FRET, biased antagonists, dose response (AID 602298); assay type: functional;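 also: antagonist potency against agonist-stimulated cAMP production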
[5] = cAMP pathway inhibition in counterscreen cell line – TR-FRET cAMP detection, counter-screen for MC4R biased antagonist project, dose response (AID 602305); assay type: functional, cell-based;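 also: U2OS cells stimulated with forskolin near its EC80 as the cAMP inducer; potency is for inhibition of forskolin-stimulated cAMP signaling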
[6] = biological target: Protein disulfide-isomerase (Homo sapiens, UniProt P07237); assay: inhibition of PDI-driven insulin aggregation – biochemical, turbidity, absorbance, cherry-picked samples, dose response (AID 602350); assay type: functional
[7] = biological target: Multidrug resistance protein CDR2 (Candida albicans (strain SC5314 / ATCC MYA-2876) (Yeast), UniProt P78595); assay: inhibition of Nile Red efflux via Candida CDR2 – S. cerevisiae AD1-8u, singleplex, Cherry Pick1 hits, dose response (AID 588604); assay type: functional
[8] = biological target: Melanin-concentrating hormone receptor 1 (Homo sapiens, UniProt Q99705); assay: Late-stage fluorescence-based counterscreen for antagonists of the G-protein coupled receptor 7 (GPR7): cell-based dose response assay to identify antagonists of the melanin-concentrating hormone receptor 1 (MCHR1) Set 5.; assay type: functional
[9] = biological target: T2, Neuropeptides B/W receptor type 1 (Homo sapiens, UniProt P48145); assay: human NPBW1 receptor blockade, IC50 – cell-based, fluorescence, dose response, set 5, late-stage follow-up (AID 588566); assay type: functional
T2 sequence (P48145 whole entry): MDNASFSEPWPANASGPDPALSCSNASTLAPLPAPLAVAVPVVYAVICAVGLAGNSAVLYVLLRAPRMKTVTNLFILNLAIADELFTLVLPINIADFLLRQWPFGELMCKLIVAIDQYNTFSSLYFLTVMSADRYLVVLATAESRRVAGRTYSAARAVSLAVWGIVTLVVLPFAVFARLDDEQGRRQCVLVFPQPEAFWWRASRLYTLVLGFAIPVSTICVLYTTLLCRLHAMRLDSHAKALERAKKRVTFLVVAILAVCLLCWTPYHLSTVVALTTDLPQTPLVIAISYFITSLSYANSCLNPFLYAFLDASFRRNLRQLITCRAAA

Melanocortin receptor 4, sequence (P32245 whole entry): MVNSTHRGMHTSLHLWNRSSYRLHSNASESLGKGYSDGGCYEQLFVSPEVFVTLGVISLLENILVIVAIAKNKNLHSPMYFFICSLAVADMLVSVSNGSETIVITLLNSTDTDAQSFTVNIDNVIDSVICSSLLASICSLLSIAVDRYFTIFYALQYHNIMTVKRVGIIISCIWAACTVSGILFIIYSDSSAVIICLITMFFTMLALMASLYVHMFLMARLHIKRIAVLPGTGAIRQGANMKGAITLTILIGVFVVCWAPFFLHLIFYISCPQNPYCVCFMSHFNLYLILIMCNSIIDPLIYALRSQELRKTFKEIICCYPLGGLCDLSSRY
Multidrug resistance protein CDR2, sequence (P78595 whole entry): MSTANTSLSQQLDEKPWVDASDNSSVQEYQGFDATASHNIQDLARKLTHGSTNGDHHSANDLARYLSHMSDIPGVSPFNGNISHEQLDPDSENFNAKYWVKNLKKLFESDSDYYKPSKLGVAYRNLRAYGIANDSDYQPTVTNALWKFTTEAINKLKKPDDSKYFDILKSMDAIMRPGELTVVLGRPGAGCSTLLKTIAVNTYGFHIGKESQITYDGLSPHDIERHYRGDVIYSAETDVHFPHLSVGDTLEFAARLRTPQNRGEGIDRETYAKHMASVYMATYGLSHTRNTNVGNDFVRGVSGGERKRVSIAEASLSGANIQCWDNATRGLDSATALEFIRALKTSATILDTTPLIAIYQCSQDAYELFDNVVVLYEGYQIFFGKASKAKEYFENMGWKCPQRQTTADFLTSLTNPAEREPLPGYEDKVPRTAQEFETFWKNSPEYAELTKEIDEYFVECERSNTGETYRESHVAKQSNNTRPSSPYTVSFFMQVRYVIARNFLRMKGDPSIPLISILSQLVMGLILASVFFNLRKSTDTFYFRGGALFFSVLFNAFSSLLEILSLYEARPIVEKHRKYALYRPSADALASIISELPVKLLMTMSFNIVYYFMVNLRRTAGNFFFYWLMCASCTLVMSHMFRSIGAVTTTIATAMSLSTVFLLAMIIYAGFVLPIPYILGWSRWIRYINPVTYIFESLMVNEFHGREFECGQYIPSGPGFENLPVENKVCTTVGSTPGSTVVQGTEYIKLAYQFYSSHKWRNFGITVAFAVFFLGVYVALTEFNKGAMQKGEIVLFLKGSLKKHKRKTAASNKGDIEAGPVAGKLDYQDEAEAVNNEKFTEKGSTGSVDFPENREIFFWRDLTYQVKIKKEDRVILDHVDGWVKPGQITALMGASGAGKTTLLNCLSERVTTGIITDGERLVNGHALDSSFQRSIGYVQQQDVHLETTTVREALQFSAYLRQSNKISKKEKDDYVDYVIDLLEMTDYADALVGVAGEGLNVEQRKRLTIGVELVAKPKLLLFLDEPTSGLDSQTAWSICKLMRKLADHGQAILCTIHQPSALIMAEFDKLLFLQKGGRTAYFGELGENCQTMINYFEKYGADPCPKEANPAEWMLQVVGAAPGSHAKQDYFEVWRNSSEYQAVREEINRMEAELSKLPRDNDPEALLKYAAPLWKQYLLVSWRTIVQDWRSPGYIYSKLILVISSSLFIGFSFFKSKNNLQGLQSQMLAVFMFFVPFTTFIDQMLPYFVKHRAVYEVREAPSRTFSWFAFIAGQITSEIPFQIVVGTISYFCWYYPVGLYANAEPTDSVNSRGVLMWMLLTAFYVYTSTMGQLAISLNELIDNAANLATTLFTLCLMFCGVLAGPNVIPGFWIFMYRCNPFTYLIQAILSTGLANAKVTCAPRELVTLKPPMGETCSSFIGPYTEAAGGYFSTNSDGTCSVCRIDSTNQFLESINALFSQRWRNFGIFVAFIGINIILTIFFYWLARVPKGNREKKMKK
Melanin-concentrating hormone receptor 1, sequence (Q99705 whole entry): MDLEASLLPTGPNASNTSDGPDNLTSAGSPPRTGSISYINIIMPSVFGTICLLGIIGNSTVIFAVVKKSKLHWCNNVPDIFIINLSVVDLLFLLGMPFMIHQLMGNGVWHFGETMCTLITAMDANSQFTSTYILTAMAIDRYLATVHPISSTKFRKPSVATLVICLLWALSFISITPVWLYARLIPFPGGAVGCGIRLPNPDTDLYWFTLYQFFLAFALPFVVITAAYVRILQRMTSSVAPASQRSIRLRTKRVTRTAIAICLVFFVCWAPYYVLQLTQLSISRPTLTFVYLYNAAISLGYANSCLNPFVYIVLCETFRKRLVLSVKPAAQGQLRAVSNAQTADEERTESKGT
DNA dC->dU-editing enzyme APOBEC-3G, sequence (Q9HC16 whole entry): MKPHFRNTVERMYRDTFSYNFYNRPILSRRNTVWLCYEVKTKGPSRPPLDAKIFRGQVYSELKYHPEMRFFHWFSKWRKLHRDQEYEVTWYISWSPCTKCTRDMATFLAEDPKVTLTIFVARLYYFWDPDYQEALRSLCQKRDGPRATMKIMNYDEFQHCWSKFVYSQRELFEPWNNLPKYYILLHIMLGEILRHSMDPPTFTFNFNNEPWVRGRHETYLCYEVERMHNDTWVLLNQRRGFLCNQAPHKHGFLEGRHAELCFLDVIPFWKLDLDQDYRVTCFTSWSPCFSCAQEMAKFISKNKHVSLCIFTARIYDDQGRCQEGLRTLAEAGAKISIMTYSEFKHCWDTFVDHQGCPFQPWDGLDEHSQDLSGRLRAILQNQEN
Protein disulfide-isomerase, sequence (P07237 whole entry): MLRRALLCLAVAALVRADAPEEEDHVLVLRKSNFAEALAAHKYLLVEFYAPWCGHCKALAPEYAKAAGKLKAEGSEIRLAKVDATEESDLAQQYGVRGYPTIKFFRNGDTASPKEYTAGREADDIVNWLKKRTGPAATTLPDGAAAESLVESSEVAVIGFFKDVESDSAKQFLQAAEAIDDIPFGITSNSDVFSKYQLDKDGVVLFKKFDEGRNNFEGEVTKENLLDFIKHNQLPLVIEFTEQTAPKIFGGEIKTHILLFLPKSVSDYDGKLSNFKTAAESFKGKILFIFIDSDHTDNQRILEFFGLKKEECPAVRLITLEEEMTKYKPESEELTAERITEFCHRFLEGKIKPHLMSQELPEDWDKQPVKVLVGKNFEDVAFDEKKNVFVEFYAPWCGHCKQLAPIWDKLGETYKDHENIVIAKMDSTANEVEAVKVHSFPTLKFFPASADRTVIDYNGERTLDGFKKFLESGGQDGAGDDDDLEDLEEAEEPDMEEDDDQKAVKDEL

SMILES: O=C(O)C1CC(c2ccc(F)cc2)=NO1 (stereo not given)
EC50 [1]: > 100 µM (inactive) and > 99 µM (inactive) | EC50 [2]: 6.69 µM (active) | EC50 [3]: 6.39 µM (active) and 3.86 µM (active) and > 99 µM (inactive) | IC50 [4]: 10.9 µM (active)

SMILES: Cn1ccs/c1=N\C(=O)c1ccc(S(C)(=O)=O)c([N+](=O)[O-])c1
IC50 (Melanocortin receptor 4): > 64.6 µM (inactive) | IC50 [5]: > 64.6 µM (inactive)

AC50 [6]: 19.5 µM (active)
SMILES: C[C@H](CO)N1C[C@H](C)[C@@H](CN(C)S(=O)(=O)c2ccc(F)cc2)Oc2ccc(NC(=O)Cc3cn(C)c4ccccc34)cc2C1=O

SMILES: COc1ccc2nccc(/C=C/c3ccnc4ccc(OC)cc34)c2c1
EC50 [7]: 14 µM (active)

IC50 [8]: > 20 µM (inactive) | IC50 [9]: 5 µM (active)
SMILES: CCOc1ccc(Sc2cnn(Cc3cccc4ccccc34)c(=O)c2Cl)cc1
